Reference: paper PMC7375803, “TBR-760, a Dopamine-Somatostatin Compound, Arrests Growth of Aggressive Nonfunctioning Pituitary Adenomas in Mice” (Endocrinology, 2020)
pEC50, pKi: −log10 of the molar value. Values joined by “and” are separate entries in the source; they are usually repeats but may differ in a detail not shown here. Equal values may be shown once. Read-outs that look alike come from different tables or passages of the source. Blank lines part the entries; values can stand above or below the molecule they belong to.

Tests used:
SSTR1 = target: SSTR1; set-up: method as in earlier work; conditions: read-out: binding affinity for SSTR1; cited from earlier work
[1] = target: T1, human somatostatin type 2 receptor (SSTR2) (Homo sapiens, UniProt P30874); conditions: read-out: SSTR2 agonist activity cAMP, EC50; cited from earlier work
[2] = Subcutaneous pharmacokinetics, plasma by HPLC-MS/MS; type: in vivo; conditions: mouse, 4 mg/kg sc, POMC KO mice, n = 4
Experimental: To study and compare the pharmacokinetic behavior of TBR-760, the DA analogue BIM-53097 and the SST analogue BIM-23023 solutions with appropriate concentrations were prepared as described earlier and mice were injected subcutaneously at time 0 with a dose of 4 mg/kg. Blood samples were collected at 15 and 30 minutes, and 1, 2, 4, 6, 8 and 24 hours after injection, and processed to obtain plasma. The determination of TBR-760, BIM-23023, or BIM-53097 was based on 100 μL plasma volume and was carried out by high-pressure liquid chromatography tandem mass spectrometry (HPLC-MS/MS) after protein precipitation with acetonitrile and subsequent solid-phase extraction. HPLC-MS/MS was performed on an AB SCIEX API 4000 LC-MS/MS with electrospray ionization operated in multiple-reaction monitoring mode for the analysis (Waters Corporation). Pharmacokinetic parameters were calculated by noncompartmental analyses using WinNonLin (version 5.2).

SSTR4 = target: SSTR4; set-up: method as in earlier work; conditions: read-out: binding affinity for SSTR4; cited from earlier work
[3] = test system: NFPAs in heterozygous POMC KO mice; experiment: Study 2: TBR-760 vs individual DA and SST agonists on pituitary tumor growth; type: in vivo, mouse
Text: (§1) Wild-type mice (3 male, 3 female) at age 6 months were scanned by MRI to determine average normal pituitary size. Heterozygous POMC KO mice were screened using MRI starting at average age 6.5 months (range, 5.5-9.5 months). These screening scans served to select animals for the study once reaching the baseline tumor volume of 10 mm^3 and to ensure reasonably homogenous groups. Most animals developed tumors within an average of 1.5 months after their first scan and at that point were randomly assigned to experimental groups. Two studies were conducted, the first comparing several doses of TBR-760 vs vehicle, and a second study comparing a fully effective dose of TBR-760 vs the molar equivalent and the 10× molar equivalent (based on the dose of TBR-760) of a pure SST agonist (BIM-23023), a pure DA agonist (BIM-53097), and the combination of the two. The concentration of the DA agonist was doubled to reflect the 2:1 ratio of DA:SST moieties present in TBR-760.
(§2) All groups were composed of 3 males and 3 females, with the exception of the vehicle- and TBR-760-treated groups (n = 8, 4 males/4 females) of the second study, which were maintained for survival analysis as described later. Once entered into the study, all mice received MRI scans for baseline, followed by scans at 2 weeks, 1 month, and 2 months after the baseline scan. Once tumor volume reached 10 mm^3 in the heterozygous POMC KO mice, the mice were treated by daily subcutaneous injection, with each injection given at the same approximate time of day. The mice were euthanized 8 weeks after start of treatment (ie, after the last scan), and pituitary tissue was collected, weighed, and flash-frozen, with the exception of the TBR-760 and vehicle-treated groups in the second study, which were maintained for survival analysis.
(§3) All studies were conducted on a Bruker 7T/210 mm Biospec system (Bruker) at the Duke Center for In Vivo Microscopy. The initial screening scans, conducted at age 6 months in wild-type mice, and average age 6.5 months (range, 5.5-9.5 months) in heterozygous POMC KO mice, were fast scans with scan times of 4 minutes (rapid acquisition with refocused echoes [RARE], repetition time [TR] = 1 second, echo time [TE] = 50 ms; 100 μm × 100 μm × 0.4 mm). Images were analyzed in ImageJ ([36]). Treatment monitoring MRI scans were carried out at 2 weeks, 1 month, and 2 months after start of treatment. For all monitoring scans, parameters were 40-minute scan time (RARE; TR = 5 seconds, TE = 50 ms; 100 μm × 100 μm × 0.3 mm). All scans included complete sectional scans of the pituitary, which were used to calculate tumor volume. MR images were preprocessed using bias field correction to account for the sensitivity profile of the receive coil, thus enhancing the tumor contrast. A trained analyst then manually segmented the tumor on each slice of the MRI. Volume of the tumor was then calculated by multiplying the area of the segmentation by the slice thickness for each slice of the image.
To compare the ability of TBR-760 to arrest aggressive pituitary tumor growth in the POMC KO mouse model vs its individual SST or DA components, either alone or in combination, heterozygous POMC KO mice were again randomly assigned to treatment groups when they presented with tumors approximately 10 mm^3 in size as determined by MRI. […]

[4] = target: T2, human dopamine type 2 receptor (D2R) (Homo sapiens, UniProt P14416); experiment: D2R receptor binding affinity; conditions: internal Tiburio data
Text: Table 1. Receptor binding affinity and agonist activity at human dopamine type 2 and somatostatin type 2 | column: D2R binding, Ki nM

[5] = target: T2, human dopamine type 2 receptor (D2R); experiment: D2R agonist activity, cAMP; type: cell-based; conditions: internal Tiburio data
Experimental: Table 1. Receptor binding affinity and agonist activity at human dopamine type 2 and somatostatin type 2 | column: D2R agonist activity cAMP, EC50 nM

residual NFPAs = test system: residual NFPAs; set-up: method as in PMID 30540568; conditions: after 24 months, cited from earlier work
[6] = test system: cultured human NFPA cells; set-up: method as in PMID 18509006; conditions: in vitro; cited from earlier work
[7] = test system: NFPAs in heterozygous POMC KO mice; experiment: Study 1: TBR-760 dose comparison on pituitary tumor growth (MRI volume, tumor weight); type: in vivo, mouse; conditions: mean ± SEM; for tumor volume after 8 weeks of treatment: vehicle 72.5 ± 5.9; for tumor weight after 8 weeks of treatment: vehicle 36 ± 7.4
Text: as §1, §2, §3
At that time, treatment was initiated with daily subcutaneous injections of either vehicle or 0.125, 1.25, or 12.5 mg/kg of TBR-760 for 8 weeks. […] The dramatic difference in tumor growth between vehicle- and TBR-760–treated mice was further confirmed by visual comparison and measurement of weights of pituitaries on death of the mice (Fig. 7B and 7C).

[8] = test system: NFPAs in heterozygous POMC KO mice; experiment: Survival analysis of tumor-bearing mice; type: in vivo, mouse; conditions: TBR-760 1 mg/kg/day, at euthanasia; vehicle 45.76 ± 6.28
Text: In the second study, the survival of TBR-760–treated mice was examined and compared with vehicle-treated mice. After the initial 8-week treatment period was complete, vehicle-treated mice were paired with TBR-760–treated mice, and treatment continued as before. When a vehicle-treated mouse died, its TBR-760-treated mouse partner continued to receive treatment for an additional 8 weeks before being euthanized. On death or euthanasia, pituitaries were collected, weighed, and flash-frozen.
Statistical analysis was performed using PRISM8 (GraphPad 2018). An ANOVA was performed followed by post hoc analysis with Dunnett’s multiple comparisons test. Results are expressed as mean ± SEM. P less than .05 was considered statistically significant. Survival analysis was performed using PRISM8 using the Gehan-Breslow-Wilcoxon test to compare the survival curves.

[9] = target: T1, human somatostatin type 2 receptor (SSTR2); experiment: SSTR2 agonist activity, cAMP; type: cell-based; conditions: internal Tiburio data
Experimental: Table 1. Receptor binding affinity and agonist activity at human dopamine type 2 and somatostatin type 2 | column: SSTR2 agonist activity cAMP, EC50 nM

[10] = target: T1, human somatostatin type 2 receptor (SSTR2); experiment: SSTR2 receptor binding affinity; conditions: internal Tiburio data
Text: Table 1. Receptor binding affinity and agonist activity at human dopamine type 2 and somatostatin type 2 | column: SSTR2 binding, Ki nM

T2 sequence (P14416 whole entry): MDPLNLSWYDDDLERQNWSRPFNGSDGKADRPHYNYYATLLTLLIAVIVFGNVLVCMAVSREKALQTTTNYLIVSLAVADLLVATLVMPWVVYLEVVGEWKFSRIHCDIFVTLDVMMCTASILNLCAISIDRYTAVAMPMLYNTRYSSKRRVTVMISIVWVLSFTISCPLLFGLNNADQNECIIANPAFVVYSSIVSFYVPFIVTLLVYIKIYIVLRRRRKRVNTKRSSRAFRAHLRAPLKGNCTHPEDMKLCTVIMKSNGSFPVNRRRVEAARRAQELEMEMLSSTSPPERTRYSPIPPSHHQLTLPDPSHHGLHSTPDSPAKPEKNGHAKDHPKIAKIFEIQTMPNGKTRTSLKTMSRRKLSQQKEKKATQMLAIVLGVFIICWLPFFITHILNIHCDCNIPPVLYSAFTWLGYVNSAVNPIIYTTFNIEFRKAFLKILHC
T1 sequence (P30874 whole entry): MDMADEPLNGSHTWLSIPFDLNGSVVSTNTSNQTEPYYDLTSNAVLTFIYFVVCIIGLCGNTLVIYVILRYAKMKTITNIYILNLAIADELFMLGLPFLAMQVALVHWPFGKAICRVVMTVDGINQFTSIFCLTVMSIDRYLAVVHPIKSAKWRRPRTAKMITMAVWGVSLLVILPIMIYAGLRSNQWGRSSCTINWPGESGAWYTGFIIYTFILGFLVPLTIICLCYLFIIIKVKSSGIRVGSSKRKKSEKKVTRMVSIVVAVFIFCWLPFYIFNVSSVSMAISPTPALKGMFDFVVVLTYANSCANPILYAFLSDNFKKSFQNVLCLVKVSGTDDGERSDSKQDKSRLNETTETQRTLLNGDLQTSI

Structure (SMILES): CC[C@@H]1NC(=O)[C@H](CCCCN)NC(=O)[C@@H](Cc2c[nH]c3ccccc23)NC(=O)[C@H](Cc2ccc(O)cc2)NC(=O)[C@@H](NC(=O)[C@H](N)Cc2ccccc2)CSSC[C@@H](C(=O)N[C@H](C(N)=O)[C@@H](C)O)NC1=O [BIM-23023, reference compound]
- pKi (SSTR1): < 6.00
- pEC50 [1]: 9.85
- AUC(0-inf) [2]: 2860 ng·h/mL
- Cmax [2]: 2300 ng/mL
- Tmax [2]: 0.25 h
- half-life [2]: 0.59 h
- pKi (SSTR4): < 6.00
- pituitary weight vs untreated, tumor-bearing controls ([3]; after 8 weeks of treatment): not significantly different
- effect on tumor growth vs vehicle ([3]; either dose (1 or 10 mg/kg) daily sc, 8 weeks): failed to show significant effects on tumor growth

- pKi [4]: 9.10
- pEC50 [5]: 10.59
Structure (SMILES): C=CCN1C[C@H](C(=O)N(CCCN(C)C)C(=O)NCC)C[C@@H]2c3cccc4[nH]cc(c34)C[C@H]21 [Cabergoline]
- patients with significant tumor shrinkage (residual NFPAs; nonintervention group 10.5%): 28.8%
- patients with tumor growth (residual NFPAs; nonintervention group 15.8%): 5.1%
- patients with stabilization of tumor (residual NFPAs; nonintervention group 73.7%): 66.1%

Structure (SMILES): CCCN1C[C@H](CSCC(=O)NCCCC[C@@H](NC(=O)CSC[C@@H]2C[C@@H]3c4cccc5[nH]cc(c45)C[C@H]3N(CCC)C2)C(=O)N[C@H]2CSSC[C@@H](C(=O)N[C@H](C(N)=O)[C@@H](C)O)NC(=O)[C@H](CC)NC(=O)[C@H](CCCCN)NC(=O)[C@@H](Cc3c[nH]c4ccccc34)NC(=O)[C@H](Cc3ccc(O)cc3)NC2=O)C[C@@H]2c3cccc4[nH]cc(c34)C[C@H]21 [TBR-760]
- pKi (SSTR1): 6.07
- proportion of NFPAs examined with significant inhibition of cell proliferation [6]: approximately 60%
- tumor volume after 8 weeks of treatment ([7]; 0.125 mg/kg daily sc): 16.5 ± 2.6 mm^3
- tumor weight after 8 weeks of treatment ([7]; 0.125 mg/kg daily sc): 5.4 ± 0.67 mg
- tumor volume after 8 weeks of treatment ([7]; 1.25 mg/kg daily sc): 10.9 ± 1.1 mm^3
- tumor weight after 8 weeks of treatment ([7]; 1.25 mg/kg daily sc): 5.0 ± 0.61 mg
- tumor volume after 8 weeks of treatment ([7]; 12.5 mg/kg daily sc): 12.3 ± 1.0 mm^3
- tumor weight after 8 weeks of treatment ([7]; 12.5 mg/kg daily sc): 4.8 ± 0.61 mg
- pKi [4]: 7.92
- final tumor weight [8]: 5.42 ± 0.52 mg
- pEC50 [5]: 10.19
- AUC(0-inf) [2]: 1880 ng·h/mL
- Cmax [2]: 354 ng/mL
- Tmax [2]: 2 h
- half-life [2]: 2.56 h
- pEC50 [9]: 8.91
- pKi (SSTR4): < 6.00
- pKi [10]: 11.00
- tumor volume after 8 weeks of treatment ([3]; 1 mg/kg/day sc, 8 weeks, mean ± SEM, vehicle 54.6 ± 10.6): 8.5 ± 1.3 mm^3
- proportion of treated mice with tumor shrinkage ([3]; TBR-760 1 mg/kg/day sc): 20%
- mean tumor volume reduction in mice whose tumors shrank ([3]; TBR-760 1 mg/kg/day sc, 1 mg/kg/day): 44.7% and 45%
